Where “and” joins values, the source holds several entries; their conditions need not be identical. Identical values can stand only once. After the bases stand the sugars from the 5' end (letter, count) and the backbone: PS all phosphorothioate, else s phosphorothioate and o phosphodiester by linkage. Methylation of C is not given here. e = 2'-O-(2-methoxyethyl) (MOE); k = constrained ethyl (cEt); d = 2'-deoxy (DNA)
Molecular target: IRF4
Conditions: ASO

Sequence AGCAACTAGCAGGGCA (sugars k3 d10 k3, PS) has a target mRNA inhibition (MM.1R, 1 µM) of -2%.

For “ATGTGTATTACTCTTA (sugars kkddddddddddkeke, PS)”, the target mRNA inhibition (MM.1R, 1 µM) was 47% and 48%.

For CCACTGGCGGAGCTTC (sugars k3 d10 k3, PS), the target mRNA inhibition (SK-MEL-28, 4 µM) was 36%.

Sequence GGTGAAACTGAGAGTG (sugars k3 d10 k3, PS) has a target mRNA inhibition (SK-MEL-28, 4 µM) of 8%.

CCGCGCTCATGCCGAA (sugars k3 d10 k3, PS) showed a target mRNA inhibition (SK-MEL-28, 4 µM) of 45%.

Work on TAATAGTAAGTTCTAG (sugars k3 d10 k3, PS) yielded a target mRNA inhibition (SK-MEL-28, 4 µM) of 0%.

In the case of CGAAAAGACTGGAGTG (sugars k3 d10 k3, PS), the target mRNA inhibition (MM.1R, 1 µM) is reported as 26%.

GAAGAGATCAGCTGCC (sugars k3 d10 k3, PS) showed a target mRNA inhibition (SK-MEL-28, 4 µM) of 42%.

TTCCAACAATAGCAAC (sugars k3 d10 k3, PS) was tested, and the target mRNA inhibition (SK-MEL-28, 4 µM) was 46%.

In the case of ACCTTTTTTGGCTCCC (sugars k3 d10 k3, PS), the target mRNA inhibition (SK-MEL-28, 4 µM) is reported as 21%.

CTTAGGAACGAAGAGC (sugars k3 d10 k3, PS) gave a target mRNA inhibition (SK-MEL-28, 4 µM) of 7%.

GTCTTAAGGGTTCAAG (sugars k3 d10 k3, PS) was tested, and the target mRNA inhibition (SK-MEL-28, 4 µM) was 49%.

With GGGTACCCTGCGCTGC (sugars k3 d10 k3, PS) the target mRNA inhibition (SK-MEL-28, 4 µM) was 44%.

For GAAATGAACCCTAAGT (sugars k3 d10 k3, PS), the target mRNA inhibition (MM.1R, 1 µM) was -5%.

In the case of TAGGATAATATACCCC (sugars k3 d10 k3, PS), the target mRNA inhibition (SK-MEL-28, 4 µM) is reported as 74%.

CTTTGATGAGCAGATC (sugars k3 d10 k3, PS) gave a target mRNA inhibition (SK-MEL-28, 4 µM) of 12%.

Work on GGACAATGGAGATACT (sugars k3 d10 k3, PS) yielded a target mRNA inhibition (MM.1R, 1 µM) of 3%.

TGCAAGTATGTAGCAA (sugars k3 d10 k3, PS) gave a target mRNA inhibition (SK-MEL-28, 4 µM) of 3%.

Work on AGCTTACTGTGATTCT (sugars k3 d10 k3, PS) yielded a target mRNA inhibition (MM.1R, 1 µM) of 13%.

GACCTTTACTTCATTC (sugars k3 d10 k3, PS) gave a target mRNA inhibition (SK-MEL-28, 4 µM) of 52%.

CGCGGTTGTAGTCCTG (sugars k3 d10 k3, PS) was tested, and the target mRNA inhibition (SK-MEL-28, 4 µM) was 44%.

GTCCGGTTAGCTCATC (sugars k3 d10 k3, PS) showed a target mRNA inhibition (SK-MEL-28, 4 µM) of 45%.

ATCGAGCGGTGAAACT (sugars k3 d10 k3, PS) was tested, and the target mRNA inhibition (SK-MEL-28, 4 µM) was 29%.

In the case of TCCATATGACCCAGTG (sugars k3 d10 k3, PS), the target mRNA inhibition (SK-MEL-28, 4 µM) is reported as 66%.

Work on TGGATTGATGTGATAG (sugars k3 d10 k3, PS) yielded a target mRNA inhibition (MM.1R, 1 µM) of 48%.

TGAATAGAGGAATGGC (sugars k3 d10 k3, PS) gave a target mRNA inhibition (SK-MEL-28, 4 µM) of 21%.

In the case of ACCCAAATGTGGAGCT (sugars k3 d10 k3, PS), the target mRNA inhibition (MM.1R, 1 µM) is reported as 3%.

With AATAAGCTCATCTGCC (sugars k3 d10 k3, PS) the target mRNA inhibition (SK-MEL-28, 4 µM) was 36%.

GGCCTTAGCCTTCCTG (sugars k3 d10 k3, PS) was tested, and the target mRNA inhibition (SK-MEL-28, 4 µM) was 17%.

Work on CCTATCACTGCCAAGT (sugars k3 d10 k3, PS) yielded a target mRNA inhibition (MM.1R, 1 µM) of -3%.

Work on ATCCAGAGGACCACGC (sugars k3 d10 k3, PS) yielded a target mRNA inhibition (SK-MEL-28, 4 µM) of 19%.

Sequence CCTTAACCAATCCCAA (sugars k3 d10 k3, PS) has a target mRNA inhibition (SK-MEL-28, 4 µM) of 43%.

“CTATAGTGTTCCAGGA (sugars kdddddddddkekeke, PS)” was tested, and the target mRNA inhibition (MM.1R, 1 µM) was 12%.

For GTACAGTCCACTCCAC (sugars k3 d10 k3, PS), the target mRNA inhibition (SK-MEL-28, 4 µM) was 10%.

TGGATTGCTGATGTGT (sugars k3 d10 k3, PS) was tested, and the target mRNA inhibition (MM.1R, 0.0625 µM) was 45%, the target mRNA inhibition (MM.1R, 0.25 µM) was 58% and the target mRNA inhibition (MM.1R, 1 µM) was 71% and 75%. The target mRNA inhibition (MM.1R, 4 µM) was 90%.

GGCCATTCGAGGTGAT (sugars k3 d10 k3, PS) showed a target mRNA inhibition (MM.1R, 1 µM) of 1%.

Sequence AGTATGAGAAACGGCC (sugars k3 d10 k3, PS) has a target mRNA inhibition (SK-MEL-28, 4 µM) of 62%.

Work on GGGAACAGGACCTGGT (sugars k3 d10 k3, PS) yielded a target mRNA inhibition (SK-MEL-28, 4 µM) of 55%.

“AGTGATGTCAGGTTTT (sugars kkddddddddddkeke, PS)” was tested, and the target mRNA inhibition (MM.1R, 1 µM) was 32%.

“ACCTCAGTTTGTGAAG (sugars kkddddddddddkeke, PS)” was tested, and the target mRNA inhibition (MM.1R, 1 µM) was -12%.

Sequence AGTGATGTCAGGTTTT (sugars k3 d10 k3, PS) has a target mRNA inhibition (SK-MEL-28, 4 µM) of 72%.

For GTAGAAGCCCACAAGA (sugars k3 d10 k3, PS), the target mRNA inhibition (SK-MEL-28, 4 µM) was -4%.

In the case of “GTGTGCTTGCCAAGCC (sugars kkdddddddddekeke, PS)”, the target mRNA inhibition (MM.1R, 1 µM) is reported as 17% and 19%.

Source: the OligoGym collection
